Source: patent publication US12721838B2 (Henry Ford Health System, priority 2020, dated 2026)
Entries after “also recorded” stand apart in the source; their conditions may differ. Read-outs that look alike come from different tables or passages of the source. Where a SMILES comes first, the peptide text is derived from it. The star is where a group is joined. Cbz = O=C(OCc1ccccc1)*; CH2F = FC*

Assays:
Trib2-OE cells = assay: Enzalutamide sensitivity of Trib2-overexpressing prostate cancer cells; type: cell-based, human; conditions: clinically relevant doses
Description: Prostate cancer cells were transfected with full length human gene to overexpress Trib2 (FIG. 18). […] Trib2 siRNA was used in parallel experiments as a positive control.

[1] = biological target: T1, Trib2-Luciferase (Luc-Trib2) fusion (Homo sapiens, UniProt Q92519); assay: cell-based; conditions: HFF, read-out: Luciferase activity (%)
T1 sequence (Q92519 with tags, fused parts or gaps): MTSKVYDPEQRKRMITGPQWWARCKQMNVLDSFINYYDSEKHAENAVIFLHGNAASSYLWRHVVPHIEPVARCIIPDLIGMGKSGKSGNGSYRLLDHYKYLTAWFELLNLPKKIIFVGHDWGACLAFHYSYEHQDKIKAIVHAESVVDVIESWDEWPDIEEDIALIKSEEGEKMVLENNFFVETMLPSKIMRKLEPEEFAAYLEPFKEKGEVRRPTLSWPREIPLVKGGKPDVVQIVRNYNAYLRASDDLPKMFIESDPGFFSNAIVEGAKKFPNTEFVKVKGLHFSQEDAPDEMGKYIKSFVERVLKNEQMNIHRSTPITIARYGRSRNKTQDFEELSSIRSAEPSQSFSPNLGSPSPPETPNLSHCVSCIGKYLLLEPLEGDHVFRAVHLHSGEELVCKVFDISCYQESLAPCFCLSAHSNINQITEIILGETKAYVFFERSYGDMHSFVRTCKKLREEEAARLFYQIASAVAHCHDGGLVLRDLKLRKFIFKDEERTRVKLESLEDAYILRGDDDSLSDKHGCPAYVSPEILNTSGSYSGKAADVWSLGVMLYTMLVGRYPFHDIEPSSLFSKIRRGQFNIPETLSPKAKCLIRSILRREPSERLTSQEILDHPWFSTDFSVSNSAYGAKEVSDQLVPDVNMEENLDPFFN

[2] = biological target: T1, Trib2-Luciferase (Luc-Trib2) fusion; conditions: for inhibition of Trib2-luciferase activity (in words): HFF-Trib2-Luc cells
[3] = system: LNCaP-ENR and MR49F ERPC cells; assay: In vitro invasion through extracellular matrix; type: cell-based, human; conditions: LNCaP-ENR and MR49F ERPC cells (data not shown)
LNCaP-ENR cells [4] = assay: MTS/PES cell viability assay, ERPC cells; type: cell-based, human; conditions: LNCaP-ENR cells, varying doses, 72 hours, MTS/PES; listed as ledipasvir
Procedure: Plates were incubated for 72 hours at 37° C. in a CO2 incubator. Cell viability was measured by MTS/PES cell titer assay (Promega Corp., Madison, WI).

TRIB2 = biological target: T2, TRIB2 (Homo sapiens, UniProt Q92519); assay: Western blot of TRIB2 protein levels in cancer cells; type: cell-based; parameters: Whole cell lysate proteins were analyzed by Western blot; endogenous in cells; host or cells: LNCaP-ENR (enzalutamide-resistant LNCaP) cells; conditions: LNCaP-ENR cells, 10 μM, 24 hours, Western blot
T2 sequence (Q92519 1-343): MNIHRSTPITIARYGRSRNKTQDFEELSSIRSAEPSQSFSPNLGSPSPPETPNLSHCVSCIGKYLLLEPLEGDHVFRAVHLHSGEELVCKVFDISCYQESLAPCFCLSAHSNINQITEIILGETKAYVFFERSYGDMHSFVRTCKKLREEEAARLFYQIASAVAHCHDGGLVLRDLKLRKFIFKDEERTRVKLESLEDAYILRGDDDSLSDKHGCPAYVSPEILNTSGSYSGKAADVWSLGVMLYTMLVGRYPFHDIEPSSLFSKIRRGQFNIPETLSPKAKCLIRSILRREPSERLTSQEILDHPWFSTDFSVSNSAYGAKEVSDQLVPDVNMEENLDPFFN
Procedure: Enzalutamide-resistant prostate cancer (ERPC) cells (LNCaP-ENR cells) were plated and treated with 10 μM each of various compounds for 24 hours. Exemplary methods for developing and using LNCaP-ENR cells is disclosed in Monga, J., Subramani, D., Bharathan, A., and Ghosh, J. (2020) “Pharmacological and genetic targeting of 5-lipoxygenase interrupts c-Myc oncogenic signaling and kills enzalutamide-resistant prostate cancer cells via apoptosis.” Scientific Reports 10: 6649, the disclosure of which is incorporated herein by reference in its entirety. Whole cell lysate proteins were analyzed by Western blot. TRIB2 antibody was used to detect protein levels of TRIB2 and GAPDH was used as loading control. Monoclonal anti-Trib2 antibody was purchased from Santa Cruz Biotech, Santa Cruz, CA.
LNCaP-ENR cells were treated with varying doses (4 μM, 8 μM, or 12 μM) of DCV for 24 hours. Effects on TRIB2 protein levels and its downstream targets (e.g., pAkt, Bcl-xL, Survivin, and FOXO3) were analyzed by Western blot. GAPDH was used as loading control. Protein levels of TRIB2, pAKT (S473), Bcl-xL, and Survivin were reduced in cells treated with 12 μM of DCV compared to control-treated cells (FIG. 3A). Levels of FOXO3 protein were increased at 12 μM of DCV treatment compared to control treatment. This was expected, as FOXO3 level is known to be decreased by Trib2. These effects on cellular protein levels were DCV concentration-dependent, with the most pronounced effects observed at the highest concentration tested (12 μM).

LNCaP-ENR cells [5] = assay: Apoptosis by Annexin V binding, flow cytometry; type: cell-based, human
Procedure: To test DCV effects on cancer cell apoptosis, LNCaP-ENR cells were treated with 8 μM DCV for 24 hours and analyzed by flow cytometry. Treatment with DCV indicated increased Annexin V binding, a read-out for apoptosis (FIG. 3C).

LNCaP-ENR cells [6] = assay: Soft-agar colony formation assay; type: cell-based, human; conditions: LNCaP-ENR (ERPC) cells, three weeks; DCV at 8 μM
Procedure: Effect of DCV on soft-agar colony formation was also analyzed. LNCaP-ENR cells (10,000 per well in 6-well plates) were plated in 0.3% soft-agar on top of a base layer of 0.6% agar. The cells were treated with DCV and incubated at 37° C. for three weeks in the CO2 incubator. Cells were given fresh media and drug every fourth day. At the end of the incubation period, colonies were stained with 0.025% crystal violet, and pictures of colonies were taken with a Nikon digital camera at ×200. Image processing was done using Q-Capture Pro-7 software. Exemplary methods of the foregoing technique can be found in Sarveswaran, Sivalokanathan et al. “Inhibition of 5-lipoxygenase downregulates stemness and kills prostate cancer stem cells by triggering apoptosis via activation of c-Jun N-terminal kinase.” Oncotarget vol. 10, 4 424-436. 11 Jan. 2019, the disclosure of which is incorporated herein by reference in its entirety.

[7] = 10 μM, 24 hours, Trib2-Luciferase fusion construct-transfected HFF cells, […]

| Molecule | activity at 10 µM [1] | other results |
| --- | --- | --- |
| CNC(=O)c1ccc(N2C(=S)N(c3ccc(C#N)c(C(F)(F)F)c3)C(=O)C2(C)C)cc1F [enzalutamide] |  | response of Trib2-OE cells to enzalutamide (Trib2-OE cells): completely resistant |
| Nc1nc2c(ncn2CCC(CO)CO)c(=O)[nH]1 [Penciclovir] | 97% | inhibition of Trib2-luciferase activity (in words) ([2]; 10 μM, 24 hours): not effective |
| Temsirolmus |  | Luciferase activity (%) ([2]; 10 µM): 94% |
| CC(=O)NCCCCCC(=O)O [6-Acetamidohexanoic] |  | Luciferase activity (%) [2, 7]: 100% |
| CC[C@H]1[C@@H]2C[C@H]3[C@@H]4N(C)c5ccccc5[C@]45C[C@@H]([C@@H]2[C@H]5O)N3[C@@H]1O [Ajamaline] |  | Luciferase activity (%) ([2]; 10 µM): 93% |
| NS(=O)(=O)c1cc(Cl)c(Cl)c(S(N)(=O)=O)c1 [Dichlorphrnamide] |  | Luciferase activity (%) ([2]; 10 µM): 100% |
| Nc1ccc(O)c(C(=O)O)c1 [5-Aminosalicyclic acid] |  | Luciferase activity (%) [2, 7]: 84% |
| COC(=O)N[C@H](C(=O)N1CC2(CC2)C[C@H]1c1nc(-c2ccc3c(c2)C(F)(F)c2cc(-c4ccc5[nH]c([C@@H]6[C@H]7CC[C@H](C7)N6C(=O)[C@@H](NC(=O)OC)C(C)C)nc5c4)ccc2-3)c[nH]1)C(C)C [Ledipasvir] | 100% | inhibition of Trib2-luciferase activity (in words) ([2]; 10 μM, 24 hours): completely ineffective; inhibition of Trib2-luciferase activity (in words) ([2]; 10 μM, 24 hours, listed as ledipasvir): no inhibition; also recorded: not effective; in vitro invasion through extracellular matrix [3]: completely ineffective; Cell viability (LNCaP-ENR cells [4]): not; TRIB2 protein levels (TRIB2): neither downregulates TRIB2; signs of apoptotic features (LNCaP-ENR cells [5]; ERPC cells): did not show any signs of apoptotic features; soft-agar colony formation (LNCaP-ENR cells [6]): completely ineffective |
| COC(=O)C[C@H](NC(=O)[C@H](C)NC(=O)[C@@H](NC(=O)OCc1ccccc1)C(C)C)C(=O)CF [Z-VAD-FMK] (Cbz-Val-Ala-Asp(OMe)-CH2F) |  | DCV treatment-induced apoptosis after pretreatment with caspase inhibitor (LNCaP-ENR cells [5]; ERPC cells pretreated): inhibited |
| CC(C)CN(C[C@@H](O)[C@H](Cc1ccccc1)NC(=O)O[C@H]1CO[C@H]2OCC[C@H]21)S(=O)(=O)c1ccc(N)cc1 [Darunavir] | 93% | inhibition of Trib2-luciferase activity (in words) ([2]; 10 μM, 24 hours): completely ineffective; also recorded: not effective |
| C[C@@H]1CCO[C@H]2Cn3cc(C(=O)NCc4ccc(F)cc4F)c(=O)c(O)c3C(=O)N12 [Dolutegravir] | 100% | inhibition of Trib2-luciferase activity (in words) ([2]; 10 μM, 24 hours): completely ineffective; also recorded: not effective |
| COC(=O)[C@H]1[C@H]2C[C@@H]3c4[nH]c5cc(OC)ccc5c4CCN3C[C@H]2C[C@@H](OC(=O)c2cc(OC)c(OC)c(OC)c2)[C@@H]1OC [Resperine] |  | Luciferase activity (%) ([2]; 10 µM): 91% |
| COc1cccc2c1C(=O)c1c(O)c3c(c(O)c1C2=O)C[C@@](O)(C(=O)CO)C[C@@H]3O[C@H]1C[C@H](N)[C@H](O)[C@H](C)O1 [Doxorubicin] | 28% |  |
| CCC(=O)NCC[C@@H]1CCc2ccc3c(c21)CCO3 [Ramelteon] | 100% |  |
| CC1(C)CCC(C)(C)c2cc(NC(=O)c3ccc(C(=O)O)cc3)ccc21 [Tamibarotene] | 100% |  |
| NC(N)=Nc1nc(CSCCC(N)=NS(N)(=O)=O)cs1 [Famotidine] | 100% |  |

| Molecule | activity at 10 µM [1] | other results |
| --- | --- | --- |
| C=C[C@]1(C)C[C@@H](OC(=O)CSC(C)(C)CNC(=O)[C@H](N)C(C)C)[C@]2(C)[C@H](C)CC[C@]3(CCC(=O)[C@H]32)[C@@H](C)[C@@H]1O [Valnemulin] | 83% |  |
| CC[C@H]1OC(=O)[C@H](C)[C@@H](O[C@H]2C[C@@](C)(OC)[C@@H](O)[C@H](C)O2)[C@H](C)[C@@H](O[C@@H]2O[C@H](C)C[C@H](N(C)C)[C@H]2O)[C@](C)(O)C[C@@H](C)[C@@H]2N[C@@H](COCCOC)O[C@H]([C@H]2C)[C@]1(C)O [Dirithromycin] | 100% |  |
| CN(C)C(=O)Oc1ccc[n+](C)c1 [Pyridostigmine] | 76% |  |
| CCCC1O[C@@H]2C[C@H]3[C@@H]4CCC5=CC(=O)C=C[C@]5(C)[C@H]4[C@@H](O)C[C@]3(C)[C@]2(C(=O)CO)O1 (some centres unmarked) [Budesonide] | 83% |  |
| CC(/C=C1\SC(=S)N(CC(=O)O)C1=O)=C\c1ccccc1 [Epalrestat] | 53% |  |
| Niraparib tosylate |  | Luciferase activity (%) ([2]; 10 µM): 93% |
| CN1[C@@H]2CC[C@H]1C[C@@H](OC(=O)C(CO)c1ccccc1)C2 (some centres unmarked) [Atropine] | 67% |  |
| CN(C)[C@@H](CCOc1cccc2ccccc12)c1ccccc1 [Dapoxetine] | 88% |  |
| CN1C[C@@H]2C[C@H]1CN2c1cc2c(cc1F)c(=O)c(C(=O)O)cn2C1CC1 [Danofloxacin] | 81% |  |
| CC[C@@H](CO)NCCN[C@@H](CC)CO [Ethambutol] | 98% |  |
| O=C(O)CCCc1ccc(N(CCCl)CCCl)cc1 [Chlorambucil] | 96% |  |
| CC1(C)CCC(CN2CCN(c3ccc(C(=O)NS(=O)(=O)c4ccc(NCC5CCOCC5)c([N+](=O)[O-])c4)c(Oc4cnc5[nH]ccc5c4)c3)CC2)=C(c2ccc(Cl)cc2)C1 [Venetoclax] | 184% |  |
| CC(C)(Oc1ccc(Cl)cc1)C(=O)O [Clofibric acid] | 87% |  |
| C=CCc1ccccc1OCC(O)CNC(C)C (centres unmarked) [Alprenolol] | 91% |  |
| CCCOc1ccc(S(=O)(=O)NCCC2CCCN2C)cc1-c1nc2c(CCC)nn(C)c2c(=O)[nH]1 (centres unmarked) [Udenafil] | 100% |  |
